Data from PMC12892976, “Alkylation-based optimization of antifungal FPPS inhibitors yields a potent, broad-spectrum lipophilic zoledronate derivative” (mBio, 2025).

What was measured:
A. fumigatus = experiment: membrane permeabilization, nucleic acid leakage; assay type: cell-based, Aspergillus fumigatus
Procedure: Membrane permeabilization was determined by measuring the leakage of nucleic acid into the supernatant ([19]). […] Suspensions were incubated at 30°C with shaking at 200 rpm for 6 h, then passed through a 0.45 µm syringe filter. The A260 of each filtrate was measured with a DS-11 FX +benchtop spectrophotometer (DeNovix).

C. albicans [1] = experiment: lipid peroxidation, TBARS assay (MDA); assay type: cell-based, Candida albicans
Procedure: Cultures were incubated overnight, pelleted, and resuspended in 1 mL ice-cold PBS. Malondialdehyde (MDA) was extracted and quantified using a TBARS assay kit (Cayman Chemical #700870) according to the manufacturer’s instructions. MDA was normalized to total protein content in cell lysates.

C. albicans [2] = experiment: ROS accumulation, DCFDA; assay type: cell-based, Candida albicans
Procedure: All cultures were incubated for 6 h and then labeled with 20 µM DCFDA in PBS for 30 min. Labeled cultures were transferred into a microplate, and fluorescence intensity was measured using a CLARIOstar plate reader (BMG Labtech).

## CCCCCCCCCCn1cc[n+](CC(O)(P(=O)(O)O)P(=O)(O)O)c1 [10-ZOL, Decyl-zoledronate]
A. fumigatus
  concentration giving significant increase in leaked nucleic acid: ≥ 1 × MIC
C. albicans [1]
  concentration at which lipid peroxidation increase became significant: 1 × MIC
C. albicans [2]
  concentration at which ROS (DCFDA fluorescence) increase became significant: 2 × MIC
